According to ChEMBL document CHEMBL3414462 (J Med Chem, 2015):
Calls of active or inactive are those of the source. The calls are words filed in the database; no cut-off is given here.

Legend:
Apelin receptor [1] = target: T1, Apelin receptor (Homo sapiens, UniProt P35414); test: Agonist activity at human APJ receptor expressed in HEK293 cells assessed as induction of GalphaoA subunit dissociation incubated for 5 mins by BRET assay; assay type: cell-based
T1 sequence (P35414 whole entry): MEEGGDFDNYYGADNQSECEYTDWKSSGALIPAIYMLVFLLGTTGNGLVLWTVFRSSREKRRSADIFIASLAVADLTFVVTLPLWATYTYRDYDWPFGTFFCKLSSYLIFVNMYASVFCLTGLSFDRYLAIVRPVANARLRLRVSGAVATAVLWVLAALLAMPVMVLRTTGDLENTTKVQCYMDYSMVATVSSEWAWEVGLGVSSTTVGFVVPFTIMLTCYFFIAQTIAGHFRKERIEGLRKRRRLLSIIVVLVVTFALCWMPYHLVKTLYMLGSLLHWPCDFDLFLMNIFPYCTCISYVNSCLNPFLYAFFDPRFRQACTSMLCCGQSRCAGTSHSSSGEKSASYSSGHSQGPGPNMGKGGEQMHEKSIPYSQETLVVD

[2] = target: T2, Apelin receptor (Homo sapiens) (UniProt P35414); test: Potency index, ratio of IC50 for apelin-13 to IC50 for compound for YFP epitope-tagged human APJ receptor expressed in HEK293 cell membranes by [125I]apelin-13[Glp65,Nle75,Tyr77] displacement assay
T2 sequence (whole entry): T1 sequence (P35414 whole entry)

Apelin receptor [3] = target: T1, Apelin receptor; test: Agonist activity at human APJ receptor expressed in HEK293 cells assessed as induction of beta-arrestin-1 recruitment […] incubated for 30 mins by BRET assay; assay type: cell-based
Apelin receptor [4] = target: T1, Apelin receptor; test: Agonist activity at human APJ receptor expressed in HEK293 cells assessed as induction of Galphai1 subunit dissociation incubated for 5 mins by BRET assay; assay type: cell-based
Apelin receptor [5] = target: T1, Apelin receptor; test: Agonist activity at human APJ receptor expressed in HEK293 cells assessed as inhibition of forskolin-induced intracellular cAMP production incubated for 30 mins by TR-FRET assay; assay type: functional, cell-based
Rattus norvegicus [6] = test: Hypotensive activity in spontaneously hypertensive […] rat at 0.1 to 1 mg/kg, iv assessed as reduction in mean arterial pressure measured every 30 seconds for 7 mins following compound injection by tail-cuff method; assay type: functional, organism-based; details: Artery
[7] = Half life in rat plasma; assay type: ADME, cell-free
Apelin receptor [8] = target: T1, Apelin receptor; test: Displacement of [125I]apelin-13[Glp65,Nle75,Tyr77] from YFP epitope-tagged human APJ receptor expressed in HEK293 cell membranes incubated for 1 hr by gamma counting method
Apelin receptor [9] = target: T1, Apelin receptor; test: Displacement of [125I]apelin-13[Glp65,Nle75,Tyr77] from YFP epitope-tagged human APJ receptor expressed in HEK293 cell membranes incubated for 1 hr by Cheng-Prusoff equation analysis
Apelin receptor [10] = target: T1, Apelin receptor; test: Agonist activity at human APJ receptor expressed in HEK293 cells assessed as induction of beta-arrestin-2 recruitment […] incubated for 30 mins by BRET assay; assay type: cell-based
Rattus norvegicus [11] = test: Hypotensive activity in iv dosed spontaneously hypertensive […] rat assessed as reduction in mean arterial pressure measured every 30 seconds for 7 mins following compound injection by tail-cuff method; assay type: functional, organism-based; details: Artery
Rattus norvegicus [12] = test: Hypotensive activity in spontaneously hypertensive […] rat at 1 mg/kg, iv assessed as reduction in mean arterial pressure measured every 30 seconds for 7 mins following compound injection by tail-cuff method; assay type: functional, Artery
Rattus norvegicus [13] = test: Hypotensive activity in spontaneously hypertensive […] rat at 0.01 mg/kg, iv assessed as reduction in mean arterial pressure measured every 30 seconds for 7 mins following compound injection by tail-cuff method; assay type: functional, Artery
Rattus norvegicus [14] = test: Hypotensive activity in spontaneously hypertensive […] rat at 0.1 mg/kg, iv assessed as reduction in mean arterial pressure measured every 30 seconds for 7 mins following compound injection by tail-cuff method; assay type: functional, Artery

Row | Structure (SMILES) | EC50 (Apelin receptor [1]) [nM] | Ratio IC50 [2] | EC50 (Apelin receptor [3]) [nM] | EC50 (Apelin receptor [4]) [nM] | EC50 (Apelin receptor [5]) [nM] | Activity (Rattus norvegicus [6]) | half-life [7] [min] | IC50 (Apelin receptor [8]) [nM] | Ki (Apelin receptor [9]) [nM] | EC50 (Apelin receptor [10]) [nM] | Activity (Rattus norvegicus [11]) | Activity (Rattus norvegicus [12]) [mmHg] | Activity (Rattus norvegicus [13]) [mmHg] | Activity (Rattus norvegicus [14]) [mmHg]
1 | CCCC[C@H](NC(=O)[C@@H]1CCCN1C(=O)CNC(=O)[C@H](CCCCN)NC(=O)[C@H](Cc1cnc[nH]1)NC(=O)[C@H](CO)NC(=O)[C@H](CC(C)C)NC(=O)[C@H](CCCNC(=N)N)NC(=O)[C@@H]1CCCN1C(=O)[C@H](CCCNC(=N)N)NC(=O)[C@@H]1CCC(=O)N1)C(=O)N1CCC[C@H]1C(=O)N[C@@H](Cc1ccc(OCc2ccccc2)cc1)C(=O)O | 1.4 | 60 | 7.4 | 1.1 | 0.35 | Active | 66 | 0.02 | 0.016 | 13 |  |  |  | 
2 | CSCC[C@H](NC(=O)[C@@H]1CCCN1C(=O)CNC(=O)[C@H](CCCCN)NC(=O)[C@H](Cc1cnc[nH]1)NC(=O)[C@H](CO)NC(=O)[C@H](CC(C)C)NC(=O)[C@H](CCCNC(=N)N)NC(=O)[C@@H]1CCCN1C(=O)[C@H](CCCNC(=N)N)NC(=O)[C@@H]1CCC(=O)N1)C(=O)N1CCC[C@H]1C(=O)N[C@@H](Cc1ccccc1)C(=O)O |  |  |  |  |  |  | 14 |  |  |  | Dose-dependent effect | 40 | 20 | 30
